Earlier results on two molecules are cited in patent US6080760A, “Alpha 1A adrenergic receptor antagonists” (Merck & Co., Inc., priority 1998, dated 2000).

Data set [1] has as its system adrenergic receptors of the alpha1 subtype. The conditions noted are these: reported in WO 92/0073.
For a further data set, the system named is prostatic hyperplasia. The note with it: reported in EP 0 204597.

Molecules are shown by their SMILES.

As for `COc1cc2nc(N3CCN(C(=O)[C@H]4CCCO4)CC3)nc(N)c2cc1OC` [R(+) enantiomer of terazosin], in data set [1], the “selective binding to adrenergic receptors of the alpha1 subtype” value is “selective ability”.

Consider `COc1cc2nc(N(C)CCCNC(=O)C3CCCO3)nc(N)c2cc1OC` (centres unmarked) [alfuzosin], for which the “urination in cases of prostatic hyperplasia” value with prostatic hyperplasia is “induce urination”.
